According to PubChem BioAssay (NCI):
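Exposure lasted 48 hours, with cells grown in 96-well plates and compounds tested at five concentrations. GI50: concentration for 50% inhibition of growth. TGI: total growth inhibition.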

How the values were obtained:
Experiment in all cases: NCI tumour cell line growth inhibition, 48 h
786-0 renal = tested on: 786-0 renal
COLO 205 colon = tested on: COLO 205 colon
IGROV1 ovarian = tested on: IGROV1 ovarian
KM12 colon = tested on: KM12 colon
LOX IMVI melanoma = tested on: LOX IMVI melanoma
NCI-H226 lung = tested on: NCI-H226 lung
NCI-H460 lung = tested on: NCI-H460 lung
OVCAR-4 ovarian = tested on: OVCAR-4 ovarian
OVCAR-5 ovarian = tested on: OVCAR-5 ovarian
SR leukemia = tested on: SR leukemia

CC(C)c1cc2c(O)c(c1)Cc1cc(C(C)C)cc(c1O)Cc1cc(C(C)C)cc(c1O)Cc1cc(C(C)C)cc(c1O)C2
TGI (786-0 renal): > 100 µM | TGI (COLO 205 colon): > 100 µM | TGI (IGROV1 ovarian): > 100 µM | TGI (KM12 colon): > 100 µM | TGI (LOX IMVI melanoma): > 100 µM | TGI (NCI-H226 lung): > 100 µM | TGI (NCI-H460 lung): > 100 µM | TGI (OVCAR-4 ovarian): > 100 µM | TGI (OVCAR-5 ovarian): > 100 µM | TGI (SR leukemia): > 100 µM

C=C(C)C1CCC2(C(=O)O)CCC3(C)C(CCC4C5(C)CCC(OC(=O)NCc6ccccc6)C(C)(C)C5CCC43C)C12 (centres undefined)
GI50 (786-0 renal): 3.98 µM | TGI (786-0 renal): > 100 µM | GI50 (COLO 205 colon): 1.82 µM | TGI (COLO 205 colon): 5.44 µM | TGI (IGROV1 ovarian): > 100 µM | GI50 (KM12 colon): 2.23 µM | TGI (KM12 colon): 12.2 µM | GI50 (LOX IMVI melanoma): 4.84 µM | TGI (LOX IMVI melanoma): > 100 µM | GI50 (NCI-H226 lung): 6.69 µM | TGI (NCI-H226 lung): > 100 µM | GI50 (NCI-H460 lung): 3.14 µM | TGI (NCI-H460 lung): 16.5 µM | GI50 (OVCAR-4 ovarian): 3.8 µM | TGI (OVCAR-4 ovarian): > 100 µM | GI50 (OVCAR-5 ovarian): 84.3 µM | TGI (OVCAR-5 ovarian): > 100 µM | GI50 (SR leukemia): 2.22 µM | TGI (SR leukemia): > 100 µM

CCN(CC)CCCC(C)Nc1cnc(C(=O)Nc2cccc3ccc(OC)nc23)cn1 (centres undefined)
GI50 (786-0 renal): 1.64 µM | TGI (786-0 renal): 3.21 µM | GI50 (COLO 205 colon): 1.77 µM | TGI (COLO 205 colon): 3.46 µM | GI50 (IGROV1 ovarian): 2.09 µM | TGI (IGROV1 ovarian): 4.91 µM | GI50 (KM12 colon): 3.17 µM | TGI (KM12 colon): 11.7 µM | GI50 (LOX IMVI melanoma): 1.77 µM | TGI (LOX IMVI melanoma): 3.34 µM | GI50 (NCI-H226 lung): 7.52 µM | TGI (NCI-H226 lung): 21.7 µM | GI50 (NCI-H460 lung): 2.12 µM | TGI (NCI-H460 lung): 4.66 µM | GI50 (OVCAR-4 ovarian): 1.98 µM | TGI (OVCAR-4 ovarian): 4.62 µM | GI50 (OVCAR-5 ovarian): 1.81 µM | TGI (OVCAR-5 ovarian): 3.78 µM | GI50 (SR leukemia): 2.27 µM | TGI (SR leukemia): 7.36 µM

O=c1[nH]c(=O)n(C2OC(CO)C(O)C(O)C2O)cc1F (centres undefined)
TGI (786-0 renal): > 100 µM | TGI (COLO 205 colon): > 100 µM | TGI (IGROV1 ovarian): > 100 µM | TGI (KM12 colon): > 100 µM | TGI (LOX IMVI melanoma): > 100 µM | TGI (NCI-H226 lung): > 100 µM | TGI (NCI-H460 lung): > 100 µM | TGI (OVCAR-4 ovarian): > 100 µM | TGI (OVCAR-5 ovarian): > 100 µM | TGI (SR leukemia): > 100 µM

COc1ccc(-n2cc(-c3cc(OC)c(OC)c(OC)c3)[nH]c2=O)cc1Cl
GI50 (786-0 renal): 27.7 µM | TGI (786-0 renal): > 100 µM | GI50 (COLO 205 colon): > 100 µM | TGI (COLO 205 colon): > 100 µM | GI50 (IGROV1 ovarian): > 100 µM | TGI (IGROV1 ovarian): > 100 µM | GI50 (KM12 colon): > 100 µM | TGI (KM12 colon): > 100 µM | GI50 (LOX IMVI melanoma): > 100 µM | TGI (LOX IMVI melanoma): > 100 µM | GI50 (NCI-H226 lung): > 100 µM | TGI (NCI-H226 lung): > 100 µM | GI50 (NCI-H460 lung): > 100 µM | TGI (NCI-H460 lung): > 100 µM | GI50 (OVCAR-4 ovarian): > 100 µM | TGI (OVCAR-4 ovarian): > 100 µM | GI50 (OVCAR-5 ovarian): > 100 µM | TGI (OVCAR-5 ovarian): > 100 µM | GI50 (SR leukemia): 55.4 µM | TGI (SR leukemia): > 100 µM

N#CCc1ccc(C(C#N)/C(CCCC(=O)Nc2cccc([N+](=O)[O-])c2)=N/NC(N)=S)cc1 (centres undefined)
TGI (786-0 renal): > 100 µM | TGI (COLO 205 colon): > 100 µM | TGI (IGROV1 ovarian): > 100 µM | TGI (KM12 colon): > 100 µM | TGI (LOX IMVI melanoma): > 100 µM | TGI (NCI-H226 lung): > 100 µM | TGI (NCI-H460 lung): > 100 µM | TGI (OVCAR-4 ovarian): > 100 µM | TGI (OVCAR-5 ovarian): > 100 µM | TGI (SR leukemia): > 100 µM

Nc1nc(-c2cccc(Cl)c2)c(-c2ccc3ncccc3n2)s1
GI50 (786-0 renal): > 25 µM | TGI (786-0 renal): > 25 µM | GI50 (COLO 205 colon): > 25 µM | TGI (COLO 205 colon): > 25 µM | GI50 (IGROV1 ovarian): 22.4 µM | TGI (IGROV1 ovarian): > 25 µM | GI50 (KM12 colon): > 25 µM | TGI (KM12 colon): > 25 µM | GI50 (LOX IMVI melanoma): > 25 µM | TGI (LOX IMVI melanoma): > 25 µM | GI50 (NCI-H226 lung): > 22 µM | TGI (NCI-H226 lung): > 25 µM | GI50 (NCI-H460 lung): > 25 µM | TGI (NCI-H460 lung): > 25 µM | GI50 (OVCAR-4 ovarian): > 25 µM | TGI (OVCAR-4 ovarian): > 25 µM | GI50 (OVCAR-5 ovarian): > 25 µM | TGI (OVCAR-5 ovarian): > 25 µM | GI50 (SR leukemia): > 25 µM | TGI (SR leukemia): > 25 µM

COc1ccc(-c2nnc(COc3ccc(NC(=O)Nc4ccc(Cl)c(C(F)(F)F)c4)cc3F)o2)cc1
GI50 (786-0 renal): 3.24 µM | TGI (786-0 renal): 12 µM | GI50 (COLO 205 colon): 2.02 µM | TGI (COLO 205 colon): 5.06 µM | GI50 (IGROV1 ovarian): 4.77 µM | TGI (IGROV1 ovarian): 26.4 µM | GI50 (KM12 colon): 2.31 µM | TGI (KM12 colon): 11 µM | GI50 (LOX IMVI melanoma): 2.93 µM | TGI (LOX IMVI melanoma): > 100 µM | GI50 (NCI-H226 lung): 4.93 µM | TGI (NCI-H226 lung): 37.3 µM | GI50 (NCI-H460 lung): 2.26 µM | TGI (NCI-H460 lung): 5.56 µM | GI50 (OVCAR-4 ovarian): 2.93 µM | TGI (OVCAR-4 ovarian): 13.7 µM | GI50 (OVCAR-5 ovarian): 10.9 µM | TGI (OVCAR-5 ovarian): 71.4 µM | GI50 (SR leukemia): 1.39 µM | TGI (SR leukemia): 4.09 µM

CCCCN1CSC(=S)N(Cc2ccccc2)C1
TGI (786-0 renal): > 100 µM | TGI (COLO 205 colon): 50.6 µM | TGI (IGROV1 ovarian): > 100 µM | TGI (KM12 colon): > 100 µM | TGI (LOX IMVI melanoma): > 100 µM | TGI (NCI-H226 lung): > 100 µM | TGI (NCI-H460 lung): > 94.3 µM | TGI (OVCAR-4 ovarian): > 100 µM | TGI (OVCAR-5 ovarian): > 100 µM | TGI (SR leukemia): > 100 µM

CC1(C)N=C(N)N=C(N)N1c1ccc(OCc2ccc(S(=O)(=O)F)c(Cl)c2)c(Cl)c1
GI50 (786-0 renal): 0.814 µM | TGI (786-0 renal): > 100 µM | GI50 (COLO 205 colon): 5.74 µM | TGI (COLO 205 colon): > 100 µM | GI50 (IGROV1 ovarian): 0.123 µM | TGI (IGROV1 ovarian): > 100 µM | GI50 (KM12 colon): 3.35 µM | TGI (KM12 colon): > 100 µM | GI50 (LOX IMVI melanoma): 0.448 µM | TGI (LOX IMVI melanoma): > 100 µM | GI50 (NCI-H226 lung): 9.72 µM | TGI (NCI-H226 lung): > 100 µM | GI50 (NCI-H460 lung): 0.426 µM | TGI (NCI-H460 lung): > 100 µM | GI50 (OVCAR-4 ovarian): 17.5 µM | TGI (OVCAR-4 ovarian): > 100 µM | GI50 (OVCAR-5 ovarian): > 100 µM | TGI (OVCAR-5 ovarian): > 100 µM | GI50 (SR leukemia): 0.432 µM | TGI (SR leukemia): > 100 µM

Cn1cnc([N+](=O)[O-])c1[Se]c1nc(N)nc2c1ncn2C1OC(CO)C(O)C1O (centres undefined)
TGI (786-0 renal): > 100 µM | TGI (COLO 205 colon): > 100 µM | TGI (IGROV1 ovarian): > 100 µM | TGI (KM12 colon): > 100 µM | TGI (LOX IMVI melanoma): > 100 µM | TGI (NCI-H226 lung): > 100 µM | TGI (NCI-H460 lung): > 100 µM | TGI (OVCAR-4 ovarian): > 100 µM | TGI (OVCAR-5 ovarian): > 100 µM | TGI (SR leukemia): > 100 µM

O=C1/C(=C/c2ccc(O)cc2)CSc2ccc(Cl)cc21
GI50 (786-0 renal): 17.2 µM | TGI (786-0 renal): 49.8 µM | GI50 (COLO 205 colon): 15.6 µM | TGI (COLO 205 colon): 29 µM | GI50 (IGROV1 ovarian): 7.58 µM | TGI (IGROV1 ovarian): 51 µM | GI50 (KM12 colon): 3.59 µM | TGI (KM12 colon): 15.7 µM | GI50 (LOX IMVI melanoma): 2.63 µM | TGI (LOX IMVI melanoma): 8.75 µM | GI50 (NCI-H226 lung): 22.1 µM | TGI (NCI-H226 lung): 51.2 µM | GI50 (NCI-H460 lung): 17.7 µM | TGI (NCI-H460 lung): 39.2 µM | GI50 (OVCAR-4 ovarian): 21.7 µM | TGI (OVCAR-4 ovarian): > 100 µM | GI50 (OVCAR-5 ovarian): 19.8 µM | TGI (OVCAR-5 ovarian): 40.4 µM | GI50 (SR leukemia): 2.14 µM | TGI (SR leukemia): > 100 µM

COc1cc2c(c(OC)c1OC)-c1c(cc3c(c1OC)OCO3)C1OC2C(C)C1C (centres undefined) (tested in a mixture with another compound)
TGI (786-0 renal): > 100 µM | TGI (COLO 205 colon): > 100 µM | TGI (IGROV1 ovarian): > 100 µM | TGI (KM12 colon): > 100 µM | TGI (LOX IMVI melanoma): > 100 µM | TGI (NCI-H226 lung): > 100 µM | TGI (NCI-H460 lung): > 100 µM | TGI (OVCAR-4 ovarian): > 100 µM | TGI (OVCAR-5 ovarian): > 100 µM | TGI (SR leukemia): > 100 µM

CSc1nc2cc(S(=O)(=O)N3CCCCC3)ccc2s1
TGI (786-0 renal): > 100 µM | TGI (COLO 205 colon): > 100 µM | TGI (IGROV1 ovarian): > 100 µM | TGI (KM12 colon): > 100 µM | TGI (LOX IMVI melanoma): > 100 µM | TGI (NCI-H226 lung): > 100 µM | TGI (NCI-H460 lung): > 100 µM | TGI (OVCAR-4 ovarian): > 100 µM | TGI (OVCAR-5 ovarian): > 100 µM | TGI (SR leukemia): > 100 µM

Cc1ccc2c(c1)CN(C(=O)CCC(=O)OCc1ccccc1)c1ccc(C)cc1CN2C(=O)CCC(=O)OCc1ccccc1
TGI (786-0 renal): > 100 µM | TGI (COLO 205 colon): > 100 µM | TGI (IGROV1 ovarian): > 100 µM | TGI (KM12 colon): > 100 µM | TGI (LOX IMVI melanoma): > 100 µM | TGI (NCI-H226 lung): > 100 µM | TGI (NCI-H460 lung): > 100 µM | TGI (OVCAR-4 ovarian): > 100 µM | TGI (OVCAR-5 ovarian): > 100 µM | TGI (SR leukemia): > 100 µM
